# Data from article PMC11054638, “Transport of Non-Steroidal Anti-Inflammatory Drugs across an Oral Mucosa Epithelium In Vitro Model” (Pharmaceutics, 2024).
# Experiments:
# [1] = tested on: oral mucosa epithelium in vitro model based on human cell line TR146; assay: in vitro; conditions: for Permeability coefficient without inflammation and inhibitor: Table S3; for increase of permeability coefficient with probenecid compared to no inhibitor / increase of permeability coefficient with verapamil compared to no inhibitor / cumulated concentration of NSAID in the basolateral compartment: 100 µM; for cumulated concentration of NSAID in the basolateral compartment: 4 h
# Procedure: (§1) As soon as cells reached confluency, cultivation was switched from submerged to airlift and 1% Human Keratinocytes Growth Supplements (HKGS, Gibco, Thermofisher, Vienna, Austria, S0015) was added to the cultivation media on the basolateral compartment. Media were changed every 2–3 days until the day of experiment on day 29. Cells from passage 14–36 were used for experiments. Transepithelial electric resistance (TEER) was measured on day of experiment, as described in detail previously.
# (§2) Solutions were diluted to 10 µM (carboxyfluorescein) or 100 µM in DMEM on day of experiments.
# (§3) First, TEER was measured in cultivation media on the day of experiment. Afterwards, cells and blanks were washed twice with DMEM on the apical (300 µL) and basolateral (900 µL) compartments and selected cells and blanks were treated with DMEM with or without 100 µM probenecid or verapamil on the apical and basolateral side at 37 °C for 30 min. […] To cells which were pre-incubated with probenecid or verapamil, 100 µM probenecid or verapamil was applied apically as well. DMSO content was adapted for cells with no inhibitors, and DMSO and dd-H2O content was adjusted in the basolateral compartment as well in order to apply the same vehicle concentrations on the apical and basolateral compartment. […] Subsequently, duplicates of apical sample were collected, and samples were frozen at −80 °C until further analysis with High-Performance Liquid Chromatography (HPLC).
# (§4) Peaks were quantified using the software Chromeleon Version 7.2.6, and corresponding mili absorbance unit × time [mAU × min] values were used for data analysis.
# (§5) Mean values of relative fluorescence unit (RFU) or detected area [mAU × min] were used for calculation. For the first timepoint, the clearance [µL] for the detected area was calculated as shown in the formula below (1a), with Abasot1 as the measured area [mAU × min] at the first time point of the basolateral sample, Vbaso as the basolateral volume [µL] and Astock as the area measured for the applied stock solution. […] Clearance [µL] for carboxyfluorescein was calculated with the same formulas using RFU. (1a) Clearance=Abasot1×Vbaso/AStock (1b) Clearancetn=Abasotn×Vbaso/AStock−∑(Abasotn−1 ×3− Abasot1 ×3)
# (§6) Cleared volume [µL] was calculated by plotting the sum of clearance at all time points over time [min]. The resulting slope PS [µL/min] was calculated inversely. For calculation of the PScell, the inverse PS blanks were subtracted, as shown below in Formula (2). (2) 1/PScell=1/PSall−1/PSblank
# (§7) The final permeability coefficient is calculated by dividing the inverse PScell by the area of the ThinCerts (0.336 cm^2) and multiplying by a conversion factor to give the permeability coefficient as µm/min.
# TR146 cell layers [2] = assay: Carboxyfluorescein permeability assay (2 h) after 48 h inflammation treatment; type: in vitro ADME, human
# Procedure: The resulting slope PS [µL/min] was calculated inversely. […] (2) 1/PScell=1/PSall−1/PSblank
# ThinCerts® were seeded with cells as described above. Stock solutions of tumour necrosis factor α (TNF-α, Sigma-Alrich, H8916, 10 µg), Interleukin-1ß (IL-1ß, PeproTech, 200-01B, 2 µg) and Interferon-γ (IFN-γ, PeproTech, Vienna, Austria, 300-02, 20 µg) were prepared with Dulbecco’s Phosphate Buffered Saline (DPBS, Thermo-Fisher Scientific, Vienna, Austria, 14190094) containing 0.1% bovine serum albumin (BSA, Roth, Graz, Austria, 8076.2) at a concentration of 10 µg/mL and stored at −20 °C until usage. Three days before the experiments, cell layers and blanks were washed twice on the basolateral compartment with 900 µL cultivation media (DMEM supplemented with 10% Fetal Calf Serum and 1% Penicillin/Streptomycin) to remove anti-inflammatory hydrocortisone residues (a component of media supplement HKGS) and were further cultivated in cultivation media.
# Prior to treating cells with prepared DMEM solutions, TEER was measured in cultivation media DMEM supplemented with 1% Penicillin/Streptomycin and 10% Fetal Calf Serum. Subsequently, cell layers and blanks were washed with DMEM (without supplements) twice on the apical and basolateral compartment, followed by TEER measurements in DMEM. Media of cells were replaced with previously prepared DMEM solutions. Control media was applied on the blanks. After 48 h treatment at 37 °C, 5% CO2 and 95% humidity TEER was measured. Subsequently, 10 µM carboxyfluorescein was added to the apical DMEM solutions and incubated in the incubator at 37 °C for 2 h. Media were immediately collected and measured for the RFU content using the EnSpire as described above. Afterwards, media were stored at −20 °C until further usage. Two cell-grown ThinCerts^TM of each treatment were pooled as one sample with 350 µL lysis buffer supplemented with 1% ß-mercaptoethanol and stored at −80 °C for RNA isolation.
# TR146 cell layers [3] = conditions: human, not told, 4 h
# ECV304 cell monolayers = conditions: cited from earlier work
# [4] = Transport study across oral mucosa Transwell model, apical to basolateral, 240 min; conditions: human
# Procedure: as §1, §2, §3, §4, §5, §6, §7
# MRP4 (ABCC4) = conditions: cited from earlier work
# [5] = CXlogD at pH 7.4 ref https://ebi.ac.uk (02.04.2024); cited from earlier work
# [6] = Transport study across blank inserts without cells; conditions: mean ± SD
# Procedure: as §3, §5, §6
# [7] = Celexocib study, w/o Inhibitor, mean ± SD
# [8] = with 100 µM verapamil, mean ± SEM
# [9] = without inhibitor, 100 µM apical (CF 10 µM), mean ± SEM
# [10] = Piroxicam study, w/o Inhibitor, mean ± SD
# [11] = with 100 µM probenecid, mean ± SEM
# [12] = Diclofenac study, w/o Inhibitor, mean ± SD
# [13] = Celexocib study, Probenecid, mean ± SD
# [14] = Celexocib study, Verapamil, mean ± SD
# [15] = Diclofenac study, Probenecid, mean ± SD
# [16] = Diclofenac study, Verapamil, mean ± SD
# [17] = Ibuprofen study, Probenecid, mean ± SD
# [18] = Ibuprofen study, Verapamil, mean ± SD
# [19] = Ibuprofen study, w/o Inhibitor, mean ± SD
# [20] = Piroxicam study, Probenecid, mean ± SD
# [21] = Piroxicam study, Verapamil, mean ± SD
compound,measurement,setting,value
carboxyfluorescein [CF],permeability coefficient,"[1]; human, 240 min",4.63 ± 0.24 µm/min
same,permeability coefficient for CF,"TR146 cell layers [2]; across cells treated with cytokines 48 h, two hours",16.16 ± 13.05 µm/min
same,permeability coefficient for CF,"TR146 cell layers [2]; across cells treated with cytokines with ibuprofen 48 h, two hours",16.75 ± 9.76 µm/min
same,permeability coefficient for CF,"TR146 cell layers [2]; across cells treated with ibuprofen 48 h, two hours",12.83 ± 3.57 µm/min
same,permeability coefficient for CF,"TR146 cell layers [2]; across control cells, two hours after 48 h",12.41 ± 5.15 µm/min
same,permeability coefficient,TR146 cell layers [3],14.26 ± 7.14 µm/min
same,permeability coefficient across ECV304 cell monolayers,ECV304 cell monolayers,~ 5 µm/min
Cc1ccc(-c2cc(C(F)(F)F)nn2-c2ccc(S(N)(=O)=O)cc2)cc1 [celecoxib],Papp A→B at 240 min,"[4]; PC (permeability of cell), Celexocib study, w/o Inhibitor, mean ± SD",0.733 ×10⁻⁶ cm/s
same,Papp A→B at 240 min,"[4]; with probenecid 100 µM, PC (permeability of cell), Celexocib study, Probenecid, mean ± SD",10.1 ×10⁻⁶ cm/s
same,Papp A→B at 240 min,"[4]; with probenecid 100 µM, PE (permeability of cell + blank), Celexocib study, Probenecid, mean ± SD",2.72 ×10⁻⁶ cm/s
same,"Papp A→B at 240 min, 100 µM","[4]; with probenecid 100 µM, permeability coefficient, with 100 µM probenecid, mean ± SEM",21.2 ×10⁻⁶ cm/s
same,Papp A→B at 240 min,"[4]; with verapamil 100 µM, PC (permeability of cell), Celexocib study, Verapamil, mean ± SD",3.5 ×10⁻⁶ cm/s
same,PE (permeability of cell + blank),[1]; [7],0.36 ± 0.15 µm/min
same,Permeability coefficient without inflammation and inhibitor,[1]; mean ± SD,0.44 ± 0.19 µm/min
same,increase of permeability coefficient with probenecid compared to no inhibitor,"[1]; human, 240 min",13.63 fold
same,increase of permeability coefficient with verapamil compared to no inhibitor,"[1]; human, 240 min",4.72 fold
same,cumulated concentration of NSAID in the basolateral compartment,[1]; human,0.0071 ± 0.00032 nmol/mm^2
same,permeability coefficient,[1]; [8],2.10 ± 0.92 µm/min
same,permeability coefficient,[1]; [9],0.44 ± 0.10 µm/min
same,inhibitory effect on MRP4 function,MRP4 (ABCC4),weaker in comparison to ibuprofen
same,XlogD,[5],4.01
CN1C(C(=O)Nc2ccccn2)=C(O)c2ccccc2S1(=O)=O [piroxicam],Papp A→B at 240 min,"[4]; PC (permeability of cell), Piroxicam study, w/o Inhibitor, mean ± SD",8.1 ×10⁻⁶ cm/s
same,Papp A→B at 240 min,"[4]; with probenecid 100 µM, PC (permeability of cell), Piroxicam study, Probenecid, mean ± SD",9.68 ×10⁻⁶ cm/s
same,Papp A→B at 240 min,"[4]; with probenecid 100 µM, PE (permeability of cell + blank), Piroxicam study, Probenecid, mean ± SD",4.52 ×10⁻⁶ cm/s
same,Papp A→B at 240 min,"[4]; with verapamil 100 µM, PC (permeability of cell), Piroxicam study, Verapamil, mean ± SD",10 ×10⁻⁶ cm/s
same,Papp A→B at 240 min,"[4]; with verapamil 100 µM, PE (permeability of cell + blank), Piroxicam study, Verapamil, mean ± SD",5.12 ×10⁻⁶ cm/s
same,PE (permeability of cell + blank),[1]; [10],2.44 ± 0.76 µm/min
same,Permeability coefficient without inflammation and inhibitor,[1]; mean ± SD,4.86 ± 2.41 µm/min
same,increase of permeability coefficient with probenecid compared to no inhibitor,"[1]; human, 240 min",1.19 fold
same,increase of permeability coefficient with verapamil compared to no inhibitor,"[1]; human, 240 min",1.23 fold
same,cumulated concentration of NSAID in the basolateral compartment,[1]; human,0.055 ± 0.016 nmol/mm^2
same,permeability coefficient,[1]; [11],5.81 ± 0.61 µm/min
same,permeability coefficient,[1]; [8],6.00 ± 0.70 µm/min
same,permeability coefficient,[1]; [9],4.86 ± 0.84 µm/min
same,inhibitory effect on MRP4 function,MRP4 (ABCC4),weaker in comparison to ibuprofen
O=C(O)Cc1ccccc1Nc1c(Cl)cccc1Cl [diclofenac],Papp A→B at 240 min,[4]; PC (permeability of cell),11.1 ×10⁻⁶ cm/s
same,Papp A→B at 240 min,[4]; PE (permeability of cell + blank),3.43 ×10⁻⁶ cm/s
same,PE (permeability of cell + blank),[1]; [12],2.11 ± 0.22 µm/min
same,Permeability coefficient without inflammation and inhibitor,[1]; mean ± SD,3.64 ± 0.84 µm/min
same,PE (permeability of cell + blank),"[1]; human, 240 min",2.98 ± 1.37 µm/min
same,increase of permeability coefficient with probenecid compared to no inhibitor,"[1]; human, 240 min",1.83 fold
same,cumulated concentration of NSAID in the basolateral compartment,[1]; human,0.043 ± 0.0046 nmol/mm^2
same,permeability coefficient,[1]; [11],6.66 ± 1.87 µm/min
same,permeability coefficient,[1]; [8],3.54 ± 0.38 µm/min
same,permeability coefficient,[1]; [9],3.64 ± 0.34 µm/min
same,XlogD,[5],1.1
CN1C(=O)CN=C(c2ccccc2)c2cc(Cl)ccc21 [diazepam],PS all (cell + blank),[1]; [13],0.14 ± 0.004 µL/min
same,PS cell,[1]; [13],0.46 ± 0.04 µL/min
same,PS all (cell + blank),[1]; [14],0.09 ± 0.05 µL/min
same,PS cell,[1]; [14],0.41 ± 0.35 µL/min
same,PS all (cell + blank),[1]; [7],0.11 ± 0.02 µL/min
same,PS cell,[1]; [7],0.38 ± 0.19 µL/min
same,PS all (cell + blank),[1]; [15],0.12 ± 0.01 µL/min
same,PS cell,[1]; [15],0.57 ± 0.21 µL/min
same,PS all (cell + blank),[1]; [16],0.1 ± 0.03 µL/min
same,PS cell,[1]; [16],0.68 ± 0.69 µL/min
same,PS all (cell + blank),[1]; [12],0.11 ± 0.03 µL/min
same,PS cell,[1]; [12],0.44 ± 0.35 µL/min
same,PS all (cell + blank),[1]; [17],0.09 ± 0.02 µL/min
same,PS cell,[1]; [17],0.29 ± 0.16 µL/min
same,PS all (cell + blank),[1]; [18],0.08 ± 0.02 µL/min
same,PS cell,[1]; [18],0.39 ± 0.35 µL/min
same,PS all (cell + blank),[1]; [19],0.12 ± 0.02 µL/min
same,PS cell,[1]; [19],0.31 ± 0.08 µL/min
same,PS all (cell + blank),[1]; [20],0.1 ± 0.01 µL/min
same,PS cell,[1]; [20],0.32 ± 0.14 µL/min
same,PS all (cell + blank),[1]; [21],0.05 ± 0.03 µL/min
same,PS cell,[1]; [21],0.24 ± 0.36 µL/min
same,PS all (cell + blank),[1]; [10],0.12 ± 0.04 µL/min
same,PS cell,[1]; [10],0.45 ± 0.24 µL/min
same,PS blank,"[6]; Diclofenac study, Probenecid",0.15 ± 0.03 µL/min
same,PS blank,"[6]; Diclofenac study, Verapamil",0.13 ± 0.03 µL/min
same,PS blank,"[6]; Diclofenac study, w/o Inhibitor",0.17 ± 0.01 µL/min
same,PS blank,"[6]; Ibuprofen study, Probenecid",0.14 ± 0.01 µL/min
same,PS blank,"[6]; Ibuprofen study, Verapamil",0.12 ± 0.06 µL/min
same,PS blank,"[6]; Ibuprofen study, w/o Inhibitor",0.21 ± 0.03 µL/min
same,PS blank,"[6]; Piroxicam study, Probenecid",0.12 ± 0.03 µL/min
same,PS blank,"[6]; Piroxicam study, Verapamil",0.09 ± 0.02 µL/min
same,PS blank,"[6]; Piroxicam study, w/o Inhibitor",0.19 ± 0.02 µL/min
same,PS blank,"[6]; study, Probenecid",0.20 ± 0.004 µL/min
same,PS blank,"[6]; study, Verapamil",0.13 ± 0.05 µL/min
same,PS blank,"[6]; study, w/o Inhibitor",0.18 ± 0.003 µL/min
